Reference: ChEMBL document CHEMBL3526027, “Pharmacokinetics, metabolism, and excretion of the antidiabetic agent ertugliflozin (PF-04971729) in healthy male subjects” (Drug Metab Dispos, 2013)

Key:
[1] = tested on: Plasma; assay: Drug level in Sprague-Dawley rat plasma treated with [14C]-ertugliflozin at 25 mg/kg, po; assay type: ADME, organism-based; design: dose 25 mg/kg, route oral; conditions: in vivo
[2] = tested on: Plasma; assay: Drug level in beagle dog plasma treated with [14C]-ertugliflozin at 10 mg/kg, po; assay type: ADME, organism-based, Canis lupus familiaris; design: dose 10 mg/kg, route oral; conditions: in vivo
[3] = Drug excretion in healthy human urine treated with [14C]-ertugliflozin at 25 mg, po by HPLC-radiocardiogram analysis; assay type: ADME, organism-based; conditions: in vivo
[4] = tested on: Homo sapiens; assay: Total drug excretion in healthy human treated with [14C]-ertugliflozin at 25 mg, po by HPLC-radiocardiogram analysis; assay type: ADME, organism-based; conditions: in vivo
[5] = tested on: Plasma; assay: Drug metabolism in healthy human plasma treated with [14C]-ertugliflozin at 25 mg, po by HPLC-radiocardiogram analysis; assay type: ADME, organism-based; conditions: in vivo
[6] = Drug level in bile duct-cannulated rat bile treated with [14C]-ertugliflozin at 25 mg/kg, po; assay type: ADME, organism-based; design: dose 25 mg/kg, route oral; conditions: in vivo
[7] = Drug level in bile duct-cannulated dog bile treated with [14C]-ertugliflozin at 10 mg/kg, po; assay type: ADME, organism-based, Canis lupus familiaris; design: dose 10 mg/kg, route oral; conditions: in vivo
[8] = tested on: Liver microsome; assay: Metabolic stability in human liver microsomes assessed as retention time treated with 10 µM ertugliflozin by HPLC analysis
[9] = Drug recovery in beagle dog feces assessed as ertugliflozin-4-O-beta-glucuronide level at 10 mg/kg, po; assay type: ADME, organism-based, Canis lupus familiaris; design: dose 10 mg/kg, route oral; conditions: in vivo
[10] = tested on: Plasma; assay: Drug metabolism in Sprague-Dawley rat plasma assessed as ertugliflozin-4-O-beta-glucuronide level at 25 mg/kg, po; assay type: ADME, organism-based; design: dose 25 mg/kg, route oral; conditions: in vivo
[11] = tested on: Plasma; assay: Drug metabolism in Sprague-Dawley rat plasma assessed as ertugliflozin-3-O-beta-glucuronide level at 25 mg/kg, po; assay type: ADME, organism-based; design: dose 25 mg/kg, route oral; conditions: in vivo
[12] = tested on: Plasma; assay: Drug metabolism in beagle dog plasma assessed as ertugliflozin-4-O-beta-glucuronide level at 10 mg/kg, po; assay type: ADME, organism-based, Canis lupus familiaris; design: dose 10 mg/kg, route oral; conditions: in vivo
[13] = tested on: Plasma; assay: Drug metabolism in beagle dog plasma assessed as ertugliflozin-3-O-beta-glucuronide level at 10 mg/kg, po; assay type: ADME, organism-based, Canis lupus familiaris; design: dose 10 mg/kg, route oral; conditions: in vivo
[14] = tested on: Liver microsome; assay: Metabolic stability in human liver microsomes assessed as retention time at 10 uM by HPLC analysis; conditions: in vitro
[15] = Drug recovery in Sprague-Dawley rat feces treated with [14C]-ertugliflozin at 25 mg/kg, po; assay type: ADME, organism-based; design: dose 25 mg/kg, route oral; conditions: in vivo
[16] = Drug recovery in beagle dog feces treated with [14C]-ertugliflozin at 10 mg/kg, po; assay type: ADME, organism-based, Canis lupus familiaris; design: dose 10 mg/kg, route oral; conditions: in vivo
[17] = Drug excretion in healthy human feces treated with [14C]-ertugliflozin at 25 mg, po by HPLC-radiocardiogram analysis; assay type: ADME, organism-based; conditions: in vivo
[18] = Oral bioavailability in Sprague-Dawley rat at 2 mg/kg; assay type: ADME, organism-based; conditions: in vivo
[19] = Oral bioavailability in beagle dog at 2 mg/kg; assay type: ADME, organism-based, Canis lupus familiaris; conditions: in vivo
[20] = Terminal elimination half life in human at 0.5 to 300 mg, po; assay type: ADME, organism-based; conditions: in vivo, read-out: beta t1/2 (converted)
[21] = Cmax in healthy human at 25 mg, po; assay type: ADME, organism-based; design: dose 25 mg, route oral; conditions: in vivo
[22] = Tmax in healthy human at 25 mg, po; assay type: ADME, organism-based; conditions: in vivo
[23] = AUC (0 to last) in healthy human at 25 mg, po; assay type: ADME, organism-based; design: dose 25 mg, time 0 - last, route oral; conditions: plasma
[24] = tested on: Homo sapiens; assay: AUC (0 to infinity) in healthy human at 25 mg, po; assay type: ADME, organism-based, Plasma; design: dose 25 mg, time infinity, route oral; conditions: in vivo
[25] = Terminal half life in healthy human at 25 mg, po; assay type: ADME, organism-based; conditions: in vivo, read-out: beta t1/2 (converted)
[26] = Total drug excretion in healthy human at 25 mg, po by HPLC-radiocardiogram analysis; assay type: ADME, organism-based; conditions: in vivo, read-out: Drug excretion
[27] = Drug metabolism in healthy human plasma at 25 mg, po by HPLC-radiocardiogram analysis; assay type: ADME, organism-based; conditions: read-out: Drug metabolism
[28] = Drug level in bile duct-cannulated rat bile at 25 mg/kg, po; assay type: ADME, organism-based; design: dose 25 mg/kg, route oral; conditions: read-out: Drug uptake
[29] = Drug level in bile duct-cannulated dog bile at 10 mg/kg, po; assay type: ADME, organism-based, Canis lupus familiaris; design: dose 10 mg/kg, route oral; conditions: read-out: Drug uptake

CCOc1ccc(Cc2cc([C@]34OC[C@](CO)(O3)[C@@H](O)[C@H](O[C@@H]3O[C@H](C(=O)O)[C@@H](O)[C@H](O)[C@H]3O)[C@H]4O)ccc2Cl)cc1
Drug metabolism [1]: metabolite_detected | Drug metabolism [2]: metabolite_detected | Drug excretion [3]: 31.7% | Drug excretion [4]: 31.7% | Drug metabolism [5]: 24.1% | Drug uptake [6]: 16.5% | Drug uptake [7]: 39.2% | Retention_time [8]: 34.3 min

CCO[14c]1[14cH][14cH][14c](Cc2cc([C@]34OC[C@](CO)(O3)[C@@H](O)[C@H](O)[C@H]4O)ccc2Cl)[14cH][14cH]1.O=C1CC[C@@H](C(=O)O)N1
Drug recovery [9]: metabolite_not_detected | Drug metabolism [10]: metabolite_detected | Drug metabolism [11]: metabolite_detected | Drug metabolism [12]: metabolite_detected | Drug metabolism [13]: metabolite_detected | Retention_time [14]: 36.4 min

OC[C@@]12CO[C@@](c3ccc(Cl)c(Cc4ccc(O)cc4)c3)(O1)[C@H](O)[C@@H](O)[C@@H]2O
Drug recovery [15]: 26.7% | Drug recovery [16]: 8.7% | Drug excretion [3]: 0.4% | Drug excretion [17]: 1% | Drug excretion [4]: 1.4% | Drug metabolism [5]: 1.3% | Retention_time [8]: 27.2 min

CCOc1ccc(Cc2cc([C@]34OC[C@](CO)(O3)[C@@H](O)[C@H](O)[C@H]4O[C@@H]3O[C@H](C(=O)O)[C@@H](O)[C@H](O)[C@H]3O)ccc2Cl)cc1
Drug metabolism [1]: metabolite_detected | Drug metabolism [2]: metabolite_detected | Drug excretion [3]: 5.7% | Drug excretion [4]: 5.7% | Drug metabolism [5]: 12.2% | Retention_time [8]: 29.4 min

CCOc1ccc(C(O)c2cc([C@]34OC[C@](CO)(O3)[C@@H](O)[C@H](O)[C@H]4O)ccc2Cl)cc1 (mixture of isomers)
Drug recovery [16]: 7.1% | Drug excretion [3]: 0.7% | Drug excretion [17]: 1.7% | Drug excretion [4]: 2.4% | Drug metabolism [5]: 2.5% | Retention_time [8]: 27.9 min

CCOc1ccc(Cc2cc([C@]34OC[C@](CO)(O3)[C@@H](O)[C@H](O)[C@H]4O)ccc2Cl)cc1 [ERTUGLIFLOZIN]
bioavailability [18]: 69% | bioavailability [19]: 94% | half-life [20]: 11 h | Cmax [21]: 490 ng/mL | Tmax [22]: 1 h | AUC(0-t) [23]: 2790 ng·h/mL | AUC [24]: 2800 ng·h/mL | half-life [25]: 16.9 h | dose excreted [26]: 35.3% | metabolised [27]: 49.9% | dose excreted [28]: 2.4% | dose excreted [29]: 9.6% | Retention_time [14]: 36.4 min
